Columns and labels:
BAT5 (60 kDa hydrolase) = BAT5 (60 kDa hydrolase) (Mus musculus, UniProt Q9Z1Q2); format: biochemical
KIAA1363 = KIAA1363 (Mus musculus, UniProt Q8BLF1); assay: biochemical
brain serine hydrolases = format: biochemical, mouse
BAT5 = BAT5 (Mus musculus, UniProt Q9Z1Q2); assay: biochemical
PLA2g7 = PLA2g7 (Mus musculus, UniProt Q60963); assay: biochemical
FAAH = FAAH (Mus musculus, UniProt O08914); assay: biochemical
ABHD12 = ABHD12 (Mus musculus, UniProt Q99LR1); assay: biochemical
Chain of ABHD12 (Q99LR1 whole entry): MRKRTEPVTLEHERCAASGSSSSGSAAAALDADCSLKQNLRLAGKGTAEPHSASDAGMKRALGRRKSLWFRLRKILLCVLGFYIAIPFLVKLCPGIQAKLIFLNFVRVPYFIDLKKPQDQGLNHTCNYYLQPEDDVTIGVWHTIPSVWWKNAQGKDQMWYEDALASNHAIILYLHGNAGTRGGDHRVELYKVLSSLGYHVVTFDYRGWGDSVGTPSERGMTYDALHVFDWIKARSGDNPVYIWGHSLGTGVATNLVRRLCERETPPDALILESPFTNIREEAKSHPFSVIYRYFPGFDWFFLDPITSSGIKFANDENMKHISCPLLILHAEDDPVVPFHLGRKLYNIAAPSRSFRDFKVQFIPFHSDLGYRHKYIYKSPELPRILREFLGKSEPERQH

Chain of PLA2g7 (Q60963 22-440): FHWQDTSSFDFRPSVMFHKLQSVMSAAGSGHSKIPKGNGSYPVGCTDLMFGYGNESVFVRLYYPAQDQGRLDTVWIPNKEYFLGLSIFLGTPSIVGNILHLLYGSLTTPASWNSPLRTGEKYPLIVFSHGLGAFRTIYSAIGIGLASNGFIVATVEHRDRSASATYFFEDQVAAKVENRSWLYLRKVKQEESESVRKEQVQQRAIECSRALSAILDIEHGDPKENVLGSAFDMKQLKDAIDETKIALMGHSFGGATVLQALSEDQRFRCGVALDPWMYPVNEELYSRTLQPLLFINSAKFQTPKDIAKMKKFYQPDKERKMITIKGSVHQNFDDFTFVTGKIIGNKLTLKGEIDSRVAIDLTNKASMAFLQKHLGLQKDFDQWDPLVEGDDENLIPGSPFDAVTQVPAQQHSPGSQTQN
Chain of BAT5 (Q9Z1Q2 whole entry): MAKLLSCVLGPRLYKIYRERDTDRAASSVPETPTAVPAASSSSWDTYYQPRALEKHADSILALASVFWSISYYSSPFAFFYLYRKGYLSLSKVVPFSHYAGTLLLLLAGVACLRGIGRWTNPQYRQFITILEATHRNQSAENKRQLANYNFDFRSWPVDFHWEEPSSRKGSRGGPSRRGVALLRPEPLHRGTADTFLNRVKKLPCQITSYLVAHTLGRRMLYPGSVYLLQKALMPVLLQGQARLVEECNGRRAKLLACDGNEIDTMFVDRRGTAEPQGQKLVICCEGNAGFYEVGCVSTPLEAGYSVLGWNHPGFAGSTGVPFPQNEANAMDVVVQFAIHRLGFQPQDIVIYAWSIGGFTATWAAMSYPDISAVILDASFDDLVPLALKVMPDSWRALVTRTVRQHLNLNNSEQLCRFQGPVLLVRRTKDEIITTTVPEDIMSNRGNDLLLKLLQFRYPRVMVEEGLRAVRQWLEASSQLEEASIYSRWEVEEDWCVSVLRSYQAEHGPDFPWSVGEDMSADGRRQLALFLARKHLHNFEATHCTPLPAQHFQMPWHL
Chain of KIAA1363 (Q8BLF1 whole entry): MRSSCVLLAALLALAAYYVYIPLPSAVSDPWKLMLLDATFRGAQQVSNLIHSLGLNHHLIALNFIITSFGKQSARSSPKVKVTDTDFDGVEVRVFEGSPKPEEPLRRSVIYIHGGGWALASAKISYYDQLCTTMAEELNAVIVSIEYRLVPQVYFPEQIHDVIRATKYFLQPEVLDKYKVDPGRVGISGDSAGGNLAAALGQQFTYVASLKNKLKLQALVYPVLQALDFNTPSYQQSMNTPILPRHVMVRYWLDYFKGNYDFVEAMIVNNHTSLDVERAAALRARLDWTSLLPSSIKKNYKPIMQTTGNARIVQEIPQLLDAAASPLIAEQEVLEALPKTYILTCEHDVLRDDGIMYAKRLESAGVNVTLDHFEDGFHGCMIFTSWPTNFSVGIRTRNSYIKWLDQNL
Chain of FAAH (O08914 whole entry): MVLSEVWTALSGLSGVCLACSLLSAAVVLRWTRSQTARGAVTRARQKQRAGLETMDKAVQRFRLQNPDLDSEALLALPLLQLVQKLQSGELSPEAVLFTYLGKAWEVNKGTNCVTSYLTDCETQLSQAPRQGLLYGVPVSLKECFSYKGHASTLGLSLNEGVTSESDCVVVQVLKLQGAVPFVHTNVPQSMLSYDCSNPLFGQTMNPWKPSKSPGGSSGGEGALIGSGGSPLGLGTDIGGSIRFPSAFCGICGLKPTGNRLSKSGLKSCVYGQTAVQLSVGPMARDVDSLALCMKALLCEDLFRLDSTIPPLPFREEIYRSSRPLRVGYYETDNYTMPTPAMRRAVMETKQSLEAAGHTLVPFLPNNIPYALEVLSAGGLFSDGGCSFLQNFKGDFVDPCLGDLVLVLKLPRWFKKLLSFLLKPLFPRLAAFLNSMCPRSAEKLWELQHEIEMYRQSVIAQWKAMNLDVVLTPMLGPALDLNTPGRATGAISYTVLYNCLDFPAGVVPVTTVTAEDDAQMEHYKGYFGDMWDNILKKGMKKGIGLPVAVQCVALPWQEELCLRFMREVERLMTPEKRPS
Chain of BAT5 (60 kDa hydrolase) (Q9Z1Q2 whole entry): as the sequence (Q9Z1Q2 whole entry) above

Row | Compound | sensitivity of 60 kDa hydrolase (tentatively BAT5) to inhibitor (BAT5 (60 kDa hydrolase)) | IC50 (KIAA1363) [µM] | inhibition of recombinant KIAA1363 (in words) (KIAA1363) | number of hydrolase activities whose labeling is blocked (brain serine hydrolases) | IC50 (BAT5) [µM] | inhibition of recombinant BAT5 (in words) (BAT5) | IC50 (PLA2g7) [µM] | inhibition of recombinant PLA2g7 (in words) (PLA2g7) | IC50 (FAAH) [µM] | inhibition of recombinant FAAH (in words) (FAAH) | IC50 (ABHD12) [µM]
1 | O=C(NCCCCCCNC(=O)ON=C1CCCCC1)ON=C1CCCCC1 [RHC80267] | sensitive | 10 to 70 | inhibited | three | 10 to 70 | inhibited | 10 to 70 | inhibited | 10 to 70 | inhibited | 
2 | CCCCCCCCCCC[C@@H](C[C@@H]1OC(=O)[C@H]1CCCCCC)OC(=O)[C@H](CC(C)C)NC=O [THL, tetrahydrolipstatin] | sensitive |  |  |  | < 0.1 | inhibited | < 0.1 | inhibited |  |  | < 0.1

From PMC2634297 (Bioorganic & medicinal chemistry letters, 2008)
